According to patent US20120088668A1, “THINNING AGENT” (TAMINCO, NAAMLOZE VENNOOTSCHAP, priority 2009, published 2012):

Key:
[1] = test system: Chrysanthemum cv Herby Mixed; test: Flower bud thinning, Chrysanthemum cv Herby Mixed: auxin/auxin precursor with or without acetaminophen; type: in vivo; conditions: for Mean Number of Buds/plant: auxins/precursors each at 10^−2 Molar solutions, AC at 3 g per hectare equivalent, applied 2 Dec. 2009 (first bud), measured 12 Jan. 2010 (flowering); for % Improvement over control ie (C) minus (A) or (B)/(C × 100): reduction of buds/plant against Control (C)
Procedure: Cultural Details: plants were sown in a commercial seed compost and then “pricked out” into a professional grade all-purpose compost in 9 cm pots set out in a randomized block design. Normal daylight plus supplementary lighting to provide a minimum of 10 hours per day. Heating was given to a minimum of 60 degrees Fahrenheit during the day and 40 degrees F. at night.
Sowing Date: 5 Oct. […] Application Date: 2 Dec. […] Measurement Date: 12 Jan. […] Measurement: Number of buds per plant.
A number of auxins or auxin precursors were applied, each at 10^−2 Molar solutions. Addition of acetaminophen (AC) was at 3 g per hectare equivalent in each test.

[2] = test system: Chrysanthemum cv Herby Mixed; test: Flower bud thinning, Chrysanthemum cv Herby Mixed: agrochemically acceptable additives with AN or AN + AC; type: in vivo; conditions: for Mean Number of Buds/plant: AN 1 g, AC 3 g actives per hectare in 250 litres water, additive per ha: Glucose 150 g, Succinic acid 50 g, Ascorbic acid 50 g, Corn oil 500 g, L-arginine 30 g, applied 4 Feb. 2010 (first bud), measured 12 Mar. 2010
Procedure: Cultural Details: plants were sown in a commercial seed compost and then “pricked out” into a professional grade all-purpose compost in 9 cm pots set out in a randomized block design. Normal daylight plus supplementary lighting to provide a minimum of 10 hours per day. Heating was given to a minimum of 60 degrees Fahrenheit during the day and 40 degrees at night. Certain agrochemically acceptable additives, as examples (rates per ha provided in the Table below), were added to either anthranilic acid ([…], applied in 250 litres water per hectare, […]) or anthranilic acid plus acetaminophen (1 gram per litre and 3 gram per litre solution respectively, applied in 250 litres water per hectare, =1 g and 3 g actives total respectively per hectare).
Sowing Date: 26 Oct. 2009, in plugs. Application Date: 4 Feb. 2010 (first bud). Measurement Date: 12 Mar. 2010 (flowering). Measurement: Number of buds per plant.

SMILES	Mean Number of Buds/plant [1]	% Improvement over control ie (C) minus (A) or (B)/(C × 100) [1]	Mean Number of Buds/plant [2]	% Improvement over untreated ([2]; reduction of buds/plant against Untreated)
Nc1c(O)cccc1C(=O)O [3-Hydroxyanthranilic acid]	2.5	+7.4%	–	–
CC(=O)Nc1ccc(O)cc1 [AC, N-(4-hydroxypheyl)acetamide, reference compound]	2.7	–	2.8	–
CC(N)=O [Acetamide]	2.3	+14.8%	–	–
Nc1ccccc1C(=O)[O-].[Na+] [Anthranilic Acid monosodium salt]	2.3	+14.8%	–	–
COC(=O)c1ccccc1N [Anthranilic acid methyl ester]	2.2	+18.5%	–	–
Nc1ccccc1C(=O)O [Anthranilic acid, anthranilic acid]	2.2	+18.5%	2.3	+17.8%
NC(=O)Cc1c[nH]c2ccccc12 [Indole-3-acetamide]	2.3	+14.8%	–	–
N[C@@H](Cc1c[nH]c2ccccc12)C(=O)O [L-Tryptophan]	2.4	+11.1%	–	–
NCCc1c[nH]c2ccccc12 [Tryptamine]	2.7	+0.0%	–	–
